{"source": "PubChem BioAssay AID1259407", "about": "(Chemical Carcinogenesis Research Information System (CCRIS), 2018)", "system": "CCRIS mutagenicity, Ames/micronucleus/aberration tests", "experiment": "CCRIS mutagenicity studies", "key": {"[1]": {"conditions": "Test System: AMES SALMONELLA TYPHIMURIUM, Strain/Indicator: TA97, Metabolic Activation: NONE, Method: PREINCUBATION"}, "[2]": {"conditions": "Test System: AMES SALMONELLA TYPHIMURIUM, Strain/Indicator: TA98, Metabolic Activation: NONE, Method: PREINCUBATION"}, "[3]": {"conditions": "Test System: AMES SALMONELLA TYPHIMURIUM, Strain/Indicator: TA100, Metabolic Activation: NONE, Method: PREINCUBATION"}, "[4]": {"conditions": "Test System: AMES SALMONELLA TYPHIMURIUM, Strain/Indicator: TA1535, Metabolic Activation: NONE, Method: PREINCUBATION"}}, "note": "Activity calls are given as the source filed them. How the calls were made is not given here."}
{"smiles": "O=S(=O)(O)c1cc(S(=O)(=O)O)c2c(N=Nc3ccccc3)c(O)ccc2c1", "values": [{"measurement": "mutagenic call", "setting": "End Point: IN VITRO CHROMOSOMAL ABERRATIONS, Test System: CHO CELLS, Metabolic Activation: NONE", "result": "inactive; negative"}, {"measurement": "mutagenic call", "setting": "End Point: IN VITRO CHROMOSOMAL ABERRATIONS, Test System: CHO CELLS, Metabolic Activation: RAT, LIVER, S-9, AROCLOR 1254", "result": "active; positive"}, {"measurement": "mutagenic call", "setting": "Test System: AMES SALMONELLA TYPHIMURIUM, Strain/Indicator: TA97, Metabolic Activation: HAMSTER, LIVER, S-9, AROCLOR 1254 (10 OR 30%), Method: PREINCUBATION", "result": "inactive; negative"}, {"measurement": "mutagenic call", "setting": "[1]", "result": "inactive; negative"}, {"measurement": "mutagenic call", "setting": "Test System: AMES SALMONELLA TYPHIMURIUM, Strain/Indicator: TA97, Metabolic Activation: RAT, LIVER, S-9, AROCLOR 1254 (10 OR 30%), Method: PREINCUBATION", "result": "inactive; negative"}, {"measurement": "mutagenic call", "setting": "Test System: AMES SALMONELLA TYPHIMURIUM, Strain/Indicator: TA98, Metabolic Activation: HAMSTER, LIVER, S-9, AROCLOR 1254 (10 OR 30%), Method: PREINCUBATION", "result": "inactive; negative"}, {"measurement": "mutagenic call", "setting": "[2]", "result": "inactive; negative"}, {"measurement": "mutagenic call", "setting": "Test System: AMES SALMONELLA TYPHIMURIUM, Strain/Indicator: TA98, Metabolic Activation: RAT, LIVER, S-9, AROCLOR 1254 (10 OR 30%), Method: PREINCUBATION", "result": "inactive; negative"}, {"measurement": "mutagenic call", "setting": "Test System: AMES SALMONELLA TYPHIMURIUM, Strain/Indicator: TA100, Metabolic Activation: HAMSTER, LIVER, S-9, AROCLOR 1254 (10 OR 30%), Method: PREINCUBATION", "result": "inactive; negative"}, {"measurement": "mutagenic call", "setting": "[3]", "result": "inactive; negative"}, {"measurement": "mutagenic call", "setting": "Test System: AMES SALMONELLA TYPHIMURIUM, Strain/Indicator: TA100, Metabolic Activation: RAT, LIVER, S-9, AROCLOR 1254 (10 OR 30%), Method: PREINCUBATION", "result": "inactive; negative"}, {"measurement": "mutagenic call", "setting": "Test System: AMES SALMONELLA TYPHIMURIUM, Strain/Indicator: TA1535, Metabolic Activation: HAMSTER, LIVER, S-9, AROCLOR 1254 (10 OR 30%), Method: PREINCUBATION", "result": "inactive; negative"}, {"measurement": "mutagenic call", "setting": "[4]", "result": "inactive; negative"}, {"measurement": "mutagenic call", "setting": "Test System: AMES SALMONELLA TYPHIMURIUM, Strain/Indicator: TA1535, Metabolic Activation: RAT, LIVER, S-9, AROCLOR 1254 (10 OR 30%), Method: PREINCUBATION", "result": "inactive; negative"}, {"measurement": "mutagenic call", "setting": "Test System: MOUSE LYMPHOMA, Strain/Indicator: L5178Y (TK+/TK-), Metabolic Activation: NONE, Method: SUSPENSION/PLATE", "result": "inactive; negative. reevaluation of results: negative"}, {"measurement": "mutagenic call", "setting": "Test System: MOUSE LYMPHOMA, Strain/Indicator: L5178Y (TK+/TK-), Metabolic Activation: RAT, LIVER, S-9, AROCLOR 1254, Method: SUSPENSION/PLATE", "result": "active; positive. reevaluation of results: equivocal"}]}
{"smiles": "COc1cc2c(c3oc(=O)c4c(c13)CC[C@H]4O)[C@@H]1C=CO[C@@H]1O2", "values": [{"measurement": "mutagenic call", "setting": "Test System: AMES SALMONELLA TYPHIMURIUM, Strain/Indicator: TA100, Metabolic Activation: NONE, Method: STANDARD PLATE", "result": "inactive; negative"}, {"measurement": "mutagenic call", "setting": "Test System: AMES SALMONELLA TYPHIMURIUM, Strain/Indicator: TA100, Metabolic Activation: RAT, LIVER, S-9, AROCLOR 1254, Method: STANDARD PLATE", "result": "active; positive"}]}
{"smiles": "O=S(=O)(O)Oc1ccc2ccc3c4ccccc4cc4ccc1c2c43", "values": [{"measurement": "mutagenic call", "setting": "[2]", "result": "inactive; negative"}, {"measurement": "mutagenic call", "setting": "Test System: AMES SALMONELLA TYPHIMURIUM, Strain/Indicator: TA98, Metabolic Activation: RAT, LUNG, S-9, Method: PREINCUBATION", "result": "inactive; negative"}]}
{"smiles": "CCn1nc(C(=O)O)c(=O)c2cc3c(cc21)OCO3", "values": [{"measurement": "mutagenic call", "setting": "Test System: AMES SALMONELLA TYPHIMURIUM, Strain/Indicator: TA102, Metabolic Activation: NONE, Method: STANDARD PLATE", "result": "active; positive"}]}
{"smiles": "CCCCC(CC)COCC1CO1", "note": "(stereo not drawn)", "values": [{"measurement": "mutagenic call", "setting": "Test System: AMES SALMONELLA TYPHIMURIUM, Strain/Indicator: TA97, Metabolic Activation: HAMSTER, LIVER, S-9, AROCLOR 1254 (10%), Method: PREINCUBATION", "result": "inactive; negative"}, {"measurement": "mutagenic call", "setting": "[1]", "result": "inactive; negative"}, {"measurement": "mutagenic call", "setting": "Test System: AMES SALMONELLA TYPHIMURIUM, Strain/Indicator: TA97, Metabolic Activation: RAT, LIVER, S-9, AROCLOR 1254 (10%), Method: PREINCUBATION", "result": "inactive; negative"}, {"measurement": "mutagenic call", "setting": "Test System: AMES SALMONELLA TYPHIMURIUM, Strain/Indicator: TA98, Metabolic Activation: HAMSTER, LIVER, S-9, AROCLOR 1254 (10%), Method: PREINCUBATION", "result": "inactive; negative"}, {"measurement": "mutagenic call", "setting": "[2]", "result": "inactive; negative"}, {"measurement": "mutagenic call", "setting": "Test System: AMES SALMONELLA TYPHIMURIUM, Strain/Indicator: TA98, Metabolic Activation: RAT, LIVER, S-9, AROCLOR 1254 (10%), Method: PREINCUBATION", "result": "inactive; negative"}, {"measurement": "mutagenic call", "setting": "Test System: AMES SALMONELLA TYPHIMURIUM, Strain/Indicator: TA100, Metabolic Activation: HAMSTER, LIVER, S-9, AROCLOR 1254 (10%), Method: PREINCUBATION", "result": "inactive; negative"}, {"measurement": "mutagenic call", "setting": "[3]", "result": "inactive; negative"}, {"measurement": "mutagenic call", "setting": "Test System: AMES SALMONELLA TYPHIMURIUM, Strain/Indicator: TA100, Metabolic Activation: RAT, LIVER, S-9, AROCLOR 1254 (5 OR 30%), Method: PREINCUBATION", "result": "inactive; negative"}, {"measurement": "mutagenic call", "setting": "Test System: AMES SALMONELLA TYPHIMURIUM, Strain/Indicator: TA100, Metabolic Activation: RAT, LIVER, S-9, AROCLOR 1254 (30%), Method: PREINCUBATION", "result": "inactive; negative"}, {"measurement": "mutagenic call", "setting": "Test System: AMES SALMONELLA TYPHIMURIUM, Strain/Indicator: TA1535, Metabolic Activation: HAMSTER, LIVER, S-9, AROCLOR 1254 (10%), Method: PREINCUBATION", "result": "inactive; negative"}, {"measurement": "mutagenic call", "setting": "[4]", "result": "inactive; negative"}, {"measurement": "mutagenic call", "setting": "Test System: AMES SALMONELLA TYPHIMURIUM, Strain/Indicator: TA1535, Metabolic Activation: RAT, LIVER, S-9, AROCLOR 1254 (5% & 10%), Method: PREINCUBATION", "result": "active; positive"}, {"measurement": "mutagenic call", "setting": "Test System: AMES SALMONELLA TYPHIMURIUM, Strain/Indicator: TA1535, Metabolic Activation: RAT, LIVER, S-9, AROCLOR 1254 (5 OR 10%), Method: PREINCUBATION", "result": "active; positive"}, {"measurement": "mutagenic call", "setting": "Test System: AMES SALMONELLA TYPHIMURIUM, Strain/Indicator: TA1535, Metabolic Activation: RAT, LIVER, S-9, AROCLOR 1254 (30%), Method: PREINCUBATION", "result": "inactive; negative"}]}
{"smiles": "O=C1c2cc(O)cc(O)c2C(=O)c2c1cc1c(c2O)[C@@H]2C=CO[C@@H]2O1", "values": [{"measurement": "mutagenic call", "setting": "Test System: UDS RODENT HEPATOCYTES, Strain/Indicator: THY INCORP, Metabolic Activation: NONE, Method: AUTORADIOGRAPHY", "result": "active; positive"}]}
{"smiles": "COc1ccc2cc1Oc1ccc(cc1)C[C@H]1c3c(cc4c(c3Oc3cc5c(cc3OC)CCN(C)[C@@H]5C2)OCO4)CCN1C", "values": [{"measurement": "mutagenic call", "setting": "[2]", "result": "inactive; negative"}, {"measurement": "mutagenic call", "setting": "Test System: AMES SALMONELLA TYPHIMURIUM, Strain/Indicator: TA98, Metabolic Activation: RAT LIVER S-9, PHENOBARBITAL, 5,6-BENZOFLAVONE, Method: PREINCUBATION", "result": "active; positive"}, {"measurement": "mutagenic call", "setting": "[3]", "result": "inactive; negative"}, {"measurement": "mutagenic call", "setting": "Test System: AMES SALMONELLA TYPHIMURIUM, Strain/Indicator: TA100, Metabolic Activation: RAT LIVER S-9, PHENOBARBITAL, 5,6-BENZOFLAVONE, Method: PREINCUBATION", "result": "active; positive"}, {"measurement": "mutagenic call", "setting": "[4]", "result": "inactive; negative"}, {"measurement": "mutagenic call", "setting": "Test System: AMES SALMONELLA TYPHIMURIUM, Strain/Indicator: TA1535, Metabolic Activation: RAT LIVER S-9, PHENOBARBITAL, 5,6-BENZOFLAVONE, Method: PREINCUBATION", "result": "active; positive"}, {"measurement": "mutagenic call", "setting": "Test System: AMES SALMONELLA TYPHIMURIUM, Strain/Indicator: TA1537, Metabolic Activation: NONE, Method: PREINCUBATION", "result": "inactive; negative"}, {"measurement": "mutagenic call", "setting": "Test System: AMES SALMONELLA TYPHIMURIUM, Strain/Indicator: TA1537, Metabolic Activation: RAT LIVER S-9, PHENOBARBITAL, 5,6-BENZOFLAVONE, Method: PREINCUBATION", "result": "active; positive"}, {"measurement": "mutagenic call", "setting": "Test System: ESCHERICHIA COLI, Strain/Indicator: WP2 UVR A, Metabolic Activation: NONE, Method: PREINCUBATION", "result": "inactive; negative"}, {"measurement": "mutagenic call", "setting": "Test System: ESCHERICHIA COLI, Strain/Indicator: WP2 UVR A, Metabolic Activation: RAT LIVER S-9, PHENOBARBITAL, 5,6-BENZOFLAVONE, Method: PREINCUBATION", "result": "inactive; negative"}, {"measurement": "mutagenic call", "setting": "Test System: UDS RAT HEPATOCYTES, Strain/Indicator: THYMIDINE INCORPORATION, Metabolic Activation: NONE, Method: AUTORADIOGRAPHY", "result": "active; positive"}]}
